The first data set can be described thus: logP by HPLC on reversed-phase columns (C 18), EEC Directive 79/831 Annex V.A8. It is filed as physicochemical. The following applies: LC-MS, pH 2.7, 0.1% aqueous formic acid and acetonitrile.
On to `COCC(C)Nc1nc(Nc2ccc(OC)nc2)ncc1Br` (stereo not shown) [II-1], for which the “logP [b]” value was 1.52[b].

The data set is the same for the next values; noted with them: method marker [a]; footnote not given.
Take `CC(C)Nc1nc(Nc2cccc(S(=O)(=O)N(C)C)c2)ncc1Cl` [Example 47]: the logP is 2.08[a]. On the same count and under the same terms, for `C=CCNc1nc(Nc2ccccc2)ncc1Cl.Cl` [Example 66] the value was 1.68[a]; for `CC(=O)c1cccc(Nc2ncc(Cl)c(N(C)C(C)C)n2)c1.Cl` [Example 45], 2.5[a]. `COCCNc1nc(Nc2cccc(C(C)=O)c2)ncc1Cl` [Example 5]: the logP was 1.49[a];. The same measure, in the same setting: the result for `COCCNc1nc(Nc2ccccc2)ncc1Cl` [Example 3] reads 1.41[a]. For `COCC(C)Nc1nc(Nc2ccc(OC(C)C)cc2)ncc1Cl` (stereo not shown) [Example 8], the logP is 1.69[a].

Take `CN(C)c1nc(Nc2ccc(S(C)(=O)=O)cc2)ncc1Cl` [Example 28]: the logP is 1.98[a]. Same read-out and setting: for `CC(=O)c1cccc(Nc2ncc(Cl)c(N(C)C)n2)c1.Cl` [Example 42] the value was 1.84[a]; for `CCC(CO)Nc1nc(Nc2cccc(Cl)c2)ncc1Cl` (stereo not shown) [Example 17], 1.96[a]; for `COCC(C)Nc1nc(Nc2ccccc2)ncc1C(F)(F)F` (stereo not shown) [Example 25], 2.96[a];. On the same count and under the same terms, the result for `CC(C)Oc1ccc(Nc2ncc(Cl)c(NCCO)n2)cc1.Cl` [Example 59] reads 1.48[a].

Still in this data set, the particulars now being: method marker [b] (compound 257: pH2.7).
Regarding `CCN(c1nc(Nc2ccccc2)ncc1Cl)C(C)C` [Example 269], the logP is 3[b]. Turning to `Clc1cccc(Nc2ncc(Cl)c(NC3CCCCC3)n2)c1` [Example 258], the logP was 3.81[b]. As for `CC(C)Nc1nc(Nc2ccc(C(=O)N(C)C)cc2)ncc1Br` [Example 245], the logP is 1.54[b]. `Cc1cnc(Nc2ccccc2)nc1NC(C)(C)C` [Example 297]: the logP was 1.48[b]. Still for that read-out and setting: the result for `CCCNc1nc(Nc2ccccc2)ncc1Cl` [Example 280] reads 1.69[b]. `CSCCNc1nc(Nc2ccccc2)ncc1Cl` [Example 293]: the logP is 1.75[b].

On to `COC(C)C(C)Nc1nc(Nc2ccccc2)ncc1Cl` (stereo not shown) [Example 295], for which the logP is 2.04[b]. With `CC(C)=CCNc1nc(Nc2ccccc2)ncc1Cl` [Example 289], the logP is 2.17[b]. The same measure, in the same setting: for `CC(=O)c1cccc(Nc2ncc(Cl)c(NC3CCCCC3)n2)c1.Cl` [Example 249] the value was 2.53[b]; for `CSc1cccc(Nc2ncc(Cl)c(NCC(C)C)n2)c1` [Example 283], 2.69[b]; for `C[Si](C)(C)CNc1nc(Nc2ccccc2)ncc1Cl` [Example 287], 2.14[b].

Take `CNc1cccc(Nc2ncc(Cl)c(NC(C)C)n2)c1` [Example 292]: the logP was 1.32[b].

The same data set, now with this note: method marker [b]; footnote not given; compound 68 value matches logP (pH 2.3).
`COCC(C)Nc1nc(Nc2ccc3c(c2)OCO3)ncc1Br` (stereo not shown) [Example 117]: the logP is 1.64[b]. On the same count and under the same terms, for `COCC(C)Nc1nc(Nc2ccc3c(c2)CCC3=O)ncc1Cl` (stereo not shown) [Example 103] the value was 1.97[b]. As for `COCC(C)Nc1nc(Nc2ccc(SC)c(Cl)c2)ncc1Cl` (stereo not shown) [Example 89], the logP was 2.77[b]. On the same count and under the same terms, the result for `COCC(C)Nc1nc(Nc2cccc(SC)c2)ncc1Br` (stereo not shown) [Example 77] reads 2.3[b]. As for `COCCNc1nc(Nc2cccc(C(C)=O)c2)ncc1Cl` [Example 5], the logP is 1.49[b]. For the molecule `COCC(C)Nc1nc(Nc2cccc(CC(=O)OC)c2)ncc1Br` (stereo not shown) [Example 113], the logP was 1.87[b].

Regarding `COCC(C)Nc1nc(Nc2ccc(OC)cc2)ncc1Cl` (stereo not shown) [Example 86], the logP was 1.56[b]. In the case of `COCC(C)Nc1nc(Nc2cccc(S(=O)(=O)N3CCOCC3)c2)ncc1Br` (stereo not shown) [Example 120], the logP is 2.16[b]. The same measure, in the same setting: for `COCC(C)Nc1nc(Nc2cccc(Cl)c2)ncc1Br` (stereo not shown) [Example 71] the value was 2.82[b]; for `COCC(C)Nc1nc(Nc2ccc(N(C)C(C)=O)cc2)ncc1Cl` (stereo not shown) [Example 99], 1.48[b]; for `COCC(C)Nc1nc(Nc2ccc(F)cc2F)ncc1Cl` (stereo not shown) [Example 81], 2.02[b].

`COCC(C)Nc1nc(Nc2ccccc2)ncc1C(F)(F)F` (stereo not shown) [Example 25]: the logP is 2.74[b].

Still in this data set, the particulars now being: method marker [c].
Consider `COC(C)C(C)Nc1nc(Nc2ccccc2)ncc1Cl` (stereo not shown) [Example 295], for which the logP was 3.64[c];.

Staying with this data set, now noted: method marker [c]; footnote not given.
Regarding `COCC(C)Nc1nc(Nc2ccccc2)ncc1C(F)(F)F` (stereo not shown) [Example 25], the logP was 3.52[c];.

The same data set, now with this note: pH 2.3, 0.1% aqueous phosphoric acid and acetonitrile.
With `COCC(C)Nc1nc(Nc2ccc(OC)nc2)ncc1Br` (stereo not shown) [II-1], the “logP [a]” value was 1.53[a];.

The same data set, now with this note: pH 2.3, logP [a].
The molecule `Clc1ncc(Cl)c(NC2CCCC2)n1` [Example V-12, 2,5-dichloro-N-(cyclopentyl)pyrimidine-4-amine] showed a chromatographic logP of 3.16.

Staying with this data set, now noted: reversed-phase HPLC column (C 18), pH 2.3, pH 2.3, 0.1% aqueous phosphoric acid and acetonitrile; read-out: logP [a].
For the molecule `CC(NS(=O)(=O)Cc1cccc(N)c1)c1ccccc1` (stereo not shown) [IV-7, 1-(3-aminophenyl)-N-(1-phenylethyl)methanesulphonamide], the chromatographic logP came to 1.53.

`CSCC(C)Nc1nc(Cl)ncc1Cl` (stereo not shown) [Example V-6, 2,5-dichloro-N-[1-(methylsulphanyl)propan-2-yl]pyrimidine-4-amine]: the chromatographic logP stood at 2.73. On the same count and under the same terms, for `CC(C)CNc1nc(Cl)ncc1Cl` [Example V-29, 2,5-dichloro-N-(2-methylpropyl)pyrimidine-4-amine] the value was 2.93; for `CC(C)CCNc1nc(Cl)ncc1Cl` [Example V-22, 2,5-dichloro-N-(3-methylbutyl)pyrimidine-4-amine], 3.45. The same measure, in the same setting: for `CCCNc1nc(Cl)ncc1Cl` [Example V-21, 2,5-dichloro-N-propylpyrimidine-4-amine] the value was 2.75; for `CCC(CO)Nc1nc(Cl)ncc1Cl` (stereo not shown) [Example V-4, 2,5-dichloro-N-(1-hydroxybutan-2-yl)pyrimidine-4-amine], 1.65; for `N#Cc1cnc(Nc2ccccc2)nc1Cl` [VIII-3, 4-Chloro-2-(phenylamino)pyrimidine-5-carbonitrile], 2.66. For the molecule `CCC(C)CNc1nc(Cl)ncc1Cl` (stereo not shown) [Example V-24, 2,5-dichloro-N-(2-methylbutyl)pyrimidine-4-amine], the chromatographic logP was found to be 3.42. On to `CCCCNc1nc(Cl)ncc1Cl` [Example V-16, N-(butan-1-yl)-2,5-dichloropyrimidine-4-amine], for which the chromatographic logP turned out to be 2.91. On the same count and under the same terms, for `CN1CCN(Cc2cccc([N+](=O)[O-])c2)C1=O` [1-methyl-3-(3-nitrobenzyl)imidazolidin-2-one] the value was 2.03; for `CCCCCNc1nc(Cl)ncc1Cl` [Example V-31, 2,5-dichloro-N-(pentyl)pyrimidine-4-amine], 3.51.

The same data set, now with this note: values marked [a]; pH 2.3.
Consider `CC(CO)Nc1nc(Nc2ccccc2)ncc1Cl` (stereo not shown) [Example 223], for which the logP is 1.04[a]. For the molecule `N#CCNc1nc(Nc2ccccc2)ncc1Cl` [Example 220], the logP is 1.62[a];. On the same count and under the same terms, for `CCC(C)N(C)c1nc(Nc2cccc(C(C)=O)c2)ncc1Cl` (stereo not shown) [Example 179] the value was 2.88[a]; for `CSCC(C)(C)Nc1nc(Nc2ccccc2)ncc1Cl` [Example 174], 2.68[a];.

The data set is the same for the next values; noted with them: values marked [b]; footnote not given.
For the molecule `COc1cccc(Nc2ncc(Cl)c(NC(C)C)n2)c1` [Example 182], the logP is 1.86[b]. For the molecule `COCC(C)Nc1nc(Nc2cccc(NC(=O)C(C)(C)C)c2)ncc1Cl` (stereo not shown) [Example 147], the logP is 1.9[b]. The same measure, in the same setting: the result for `COCC(C)Nc1nc(Nc2cccc(NC(=O)C(C)C)c2)ncc1Cl` (stereo not shown) [Example 156] reads 1.68[b]; that for `CCOCCN(C)c1nc(Nc2ccccc2)ncc1Br` [Example 237], 2.55[b]. On the same count and under the same terms, for `COCC(C)Nc1nc(Nc2ccc(C(=O)Nc3ccccc3)cc2)ncc1Cl` (racemic) [Example 141] the value was 1.8[b]. `CCN(C(C)=O)c1ccc(Nc2ncc(Cl)c(NC(C)C)n2)cc1` [Example 191]: the logP is 1.66[b]. On the same count and under the same terms, for `COCC(C)Nc1nc(Nc2cccc(C(=O)N(C)C)c2)ncc1Cl` (stereo not shown) [Example 155] the value was 1.47[b]; for `CC(C)Nc1nc(Nc2ccc(SC(F)F)cc2)ncc1Cl` [Example 212], 2.88[b].

Take `COCC(C)Nc1nc(Nc2ccc(O)c(F)c2)ncc1Cl` (stereo not shown) [Example 160]: the logP is 1.34[b].

For the molecule `CC(=O)N1CCc2ccc(Nc3ncc(Cl)c(NC(C)C)n3)cc21` [Example 206], the logP was 1.61[b]. Same read-out and setting: the result for `COCC(C)Nc1nc(Nc2ccc(NC(=O)C(C)(C)C)cc2)ncc1Cl` (racemic) [Example 146] reads 1.78[b]; that for `C=CCNC(=O)c1ccc(Nc2ncc(Br)c(NC(C)COC)n2)cc1` (racemic) [Example 128], 1.75[b]; that for `CC(C)Nc1nc(Nc2cccc(OC(F)(F)C(F)F)c2)ncc1Cl` [Example 211], 2.88[b]. The same measure, in the same setting: the result for `CNC(=O)Oc1cccc(Nc2ncc(Br)c(NC(C)COC)n2)c1` (racemic) [Example 130] reads 1.56[b]. Same read-out and setting: the result for `COCC(C)Nc1nc(Nc2ccc(C(=O)NC(C)(C)C)cc2)ncc1Cl` (racemic) [Example 137] reads 2.06[b]; that for `CC(C)Nc1nc(Nc2cccc(NC(=O)C(C)(C)C)c2)ncc1Cl` [Example 197], 1.91[b]; that for `COCC(C)Nc1nc(Nc2ccc3sc(C)nc3c2)ncc1Br` (stereo not shown) [Example 122], 1.87[b]. With `COCC(C)Nc1nc(Nc2ccc(N(C(C)=O)C3CCCCC3)cc2)ncc1Cl` (stereo not shown) [Example 161], the logP is 2.33[b].

Regarding `CC(C)Nc1nc(Nc2ccc(NC(=O)C3(C)CC3)cc2)ncc1Cl` [Example 194], the logP was 1.71[b]. On the same count and under the same terms, the result for `COCC(C)Nc1nc(Nc2cccc(NC(=O)Oc3ccccc3)c2)ncc1Cl` (stereo not shown) [Example 165] reads 2.23[b]; that for `COCC(C)Nc1nc(Nc2ccc(S(C)(=O)=O)cc2)ncc1Cl` (racemic) [Example 145], 1.85[b]. The same measure, in the same setting: for `COCC(C)Nc1nc(Nc2ccc(SC(F)F)cc2)ncc1Cl` (stereo not shown) [Example 172] the value was 2.8[b]; for `COCC(C)Nc1nc(Nc2ccc(N(C)C(=O)C(C)(C)C)cc2)ncc1Cl` (stereo not shown) [Example 163], 1.87[b].

Staying with this data set, now noted: values marked [c]; footnote not given.
As for `CCOCCN(C)c1nc(Nc2ccccc2)ncc1Br` [Example 237], the logP is 3.95[c];. The same measure, in the same setting: the result for `N#CCNc1nc(Nc2ccccc2)ncc1Cl` [Example 220] reads 2.2[c]. Still for that read-out and setting: the result for `CC(C)Nc1nc(Nc2cccc(CC#N)c2)ncc1Cl` [Example 236] reads 1.69[c]; that for `CSCC(C)(C)Nc1nc(Nc2ccccc2)ncc1Cl` [Example 174], 4.18[c].

Source of the values: patent US20110230478A1 (Bayer ScienceCrop AG, priority 2008, published 2011).
